From paper PMC1500811, “Neofunctionalization in Vertebrates: The Example of Retinoic Acid Receptors” (PLoS Genetics, 2006)

How the values were obtained:
xRARβ = test system: T1, xRARβ; test: Gal4-RAR(LBD) luciferase transactivation in Cos-1 cells; assay type: cell-based, Xenopus laevis; settings: agonist; one collective range given for all chordate RARs
T1 construct: gene rarb; LBD fused to Gal4 residues 1-147; in vitro translated for proteolysis

AncRAR = test system: T2, AncRAR; test: as above; assay type: cell-based, synthetic construct; settings: agonist; one collective range given for all chordate RARs
T2 construct: maximum-likelihood reconstructed LBD fused to Gal4 residues 1-147
Excerpt: Gal4-RAR(LBD) luciferase transactivation in Cos-1 cells on AncRAR | all the chordate RARs, including the reconstructed AncRAR, are able to transactivate in a dose-dependent manner

xRARα = target: T3, xRARα (Xenopus laevis, UniProt P51126); test: as above; assay type: cell-based; settings: agonist; one collective range given for all chordate RARs
T3 construct: gene rara; LBD fused to Gal4 residues 1-147; in vitro translated for proteolysis
T3 sequence (P51126 155-458 limits assumed): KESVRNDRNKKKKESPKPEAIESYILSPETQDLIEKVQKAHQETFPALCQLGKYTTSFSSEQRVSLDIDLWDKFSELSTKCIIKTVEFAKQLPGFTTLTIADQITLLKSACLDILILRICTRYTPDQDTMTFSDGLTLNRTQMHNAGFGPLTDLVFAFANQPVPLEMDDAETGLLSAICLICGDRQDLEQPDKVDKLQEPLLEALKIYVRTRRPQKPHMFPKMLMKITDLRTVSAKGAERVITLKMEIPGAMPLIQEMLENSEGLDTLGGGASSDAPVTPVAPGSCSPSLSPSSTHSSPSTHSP

zfRARγ = test system: T4, zfRARγ; test: as above; assay type: cell-based, Danio rerio; settings: agonist; one collective range given for all chordate RARs
T4 construct: gene rarga; LBD fused to Gal4 residues 1-147; in vitro translated for proteolysis

xRARγ = target: T5, xRARγ (Xenopus laevis, UniProt P28699); test: as above; assay type: cell-based; settings: agonist; one collective range given for all chordate RARs
T5 construct: gene rarg; LBD fused to Gal4 residues 1-147; in vitro translated for proteolysis
T5 sequence (P28699 166-476 limits assumed): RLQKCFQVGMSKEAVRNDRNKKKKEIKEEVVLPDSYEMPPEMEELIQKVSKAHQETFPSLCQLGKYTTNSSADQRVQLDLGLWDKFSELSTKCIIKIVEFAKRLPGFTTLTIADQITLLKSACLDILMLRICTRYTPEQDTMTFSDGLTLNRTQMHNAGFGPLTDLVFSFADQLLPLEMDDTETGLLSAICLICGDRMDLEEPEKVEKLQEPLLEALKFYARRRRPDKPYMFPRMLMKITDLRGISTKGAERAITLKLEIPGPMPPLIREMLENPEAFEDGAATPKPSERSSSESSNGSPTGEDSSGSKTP

zfRARα = test system: T6, zfRARα; test: as above; assay type: cell-based, Danio rerio; settings: agonist; one collective range given for all chordate RARs
T6 construct: gene raraa; LBD fused to Gal4 residues 1-147; in vitro translated for proteolysis

AmphiRAR [1] = target: T7, AmphiRAR (Branchiostoma floridae, UniProt Q8MX80); test: as above; assay type: cell-based; parameters: LBD from Ser154 fused to Gal4 residues 1-147; settings: agonist; one collective range given for all chordate RARs
T7 sequence (Q8MX80 entry or part of it): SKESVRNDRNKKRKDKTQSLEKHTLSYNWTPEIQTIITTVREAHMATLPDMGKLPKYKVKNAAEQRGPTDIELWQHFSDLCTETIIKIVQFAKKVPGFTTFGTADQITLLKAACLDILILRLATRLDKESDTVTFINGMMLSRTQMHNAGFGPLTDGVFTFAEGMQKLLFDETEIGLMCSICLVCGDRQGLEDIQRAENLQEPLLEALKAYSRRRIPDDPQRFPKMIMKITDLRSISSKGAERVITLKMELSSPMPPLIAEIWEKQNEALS

PmRAR [2] = target: T8, PmRAR (Polyandrocarpa misakiensis, UniProt K7ZRU3); test: as above; assay type: cell-based; parameters: gene Pm-RAR; LBD fused to Gal4 residues 1-147; settings: agonist; one collective range given for all chordate RARs
T8 sequence (K7ZRU3 208-503 limits assumed): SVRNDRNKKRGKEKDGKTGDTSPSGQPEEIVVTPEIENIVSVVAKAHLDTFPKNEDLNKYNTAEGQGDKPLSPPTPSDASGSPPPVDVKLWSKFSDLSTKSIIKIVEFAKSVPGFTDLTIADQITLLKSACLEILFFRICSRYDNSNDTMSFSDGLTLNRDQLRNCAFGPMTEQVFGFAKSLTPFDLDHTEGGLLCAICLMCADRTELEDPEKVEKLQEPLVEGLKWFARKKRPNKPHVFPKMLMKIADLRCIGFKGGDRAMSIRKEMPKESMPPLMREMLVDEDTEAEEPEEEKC

PmRAR [3] = target: T8, PmRAR; test: limited trypsin proteolysis of in vitro-translated receptor; assay type: binding; parameters: gene Pm-RAR; LBD fused to Gal4 residues 1-147; in vitro translated for proteolysis; settings: ligand 10^-4 to 10^-5 M, room temperature
AmphiRAR [4] = target: T7, AmphiRAR; test: as above; assay type: binding; parameters: LBD from Ser154 fused to Gal4 residues 1-147; in vitro translated for proteolysis; settings: ligand 10^-4 to 10^-5 M, room temperature

## CC1=C(/C=C/C(C)=C/C=C/C(C)=C/C(=O)O)C(C)(C)CCC1 [ATRA]
xRARβ
  EC50: ~ 10^−9 to 10^−8 M
AncRAR
  EC50: ~ 10^−9 to 10^−8 M
xRARα
  EC50: ~ 10^−9 to 10^−8 M
zfRARγ
  EC50: ~ 10^−9 to 10^−8 M
xRARγ
  EC50: ~ 10^−9 to 10^−8 M
zfRARα
  EC50: ~ 10^−9 to 10^−8 M
AmphiRAR [1]
  EC50: ~ 10^−9 to 10^−8 M
PmRAR [2]
  EC50: ~ 10^−9 to 10^−8 M

## CC1(C)CC=C(c2ccccc2)c2cc(/C=C/c3ccc(C(=O)O)cc3Cl)ccc21 [BMS641]
PmRAR [3]
  limited trypsin proteolysis of in vitro-translated receptor: both PmRAR and AncRAR are able to bind weakly the β-specific retinoid (BMS641)

## CC1(C)C(=O)C(C)(C)c2cc(C(=O)Nc3ccc(C(=O)O)cc3)ccc21 [BMS753]
AmphiRAR [4]
  limited trypsin proteolysis of in vitro-translated receptor: It also binds the α-specific compound (BMS753) (Figure 4F)
